Here are results for five molecules from publication PMC2374293, “The equilibrium and kinetic drug binding properties of the mouse P-gp1a and P-gp1b P-glycoproteins are similar” (British Journal of Cancer, 1999).

Assay [1] has as its system P-gp. Kind of assay: Binding of [3H]progesterone to P-gp. Further details: species or system mouse. To be noted: data not shown. From the text:
(§1) The two murine proteins share 84% amino acid identity, although the linker region which contains several sites for phosphorylation by protein kinase C (PKC) is the least conserved region between the two isoforms (Devault and Gros, 1990). […] P-gp1a is expressed at high levels in the intestine, liver and testis, and also in the lung and brain where it is thought to contribute to the blood-brain barrier (Schinkel et al, 1994). In contrast, P-gp1b is expressed in tissues associated with steroid biosynthesis and distribution, such as the adrenal gland and ovary, and is induced specifically in the uterus during pregnancy (Arceci et al, 1988; Trezise et al, 1992). The steroid hormone progesterone increases during pregnancy, and the mdr1b gene, but not the mdr1a gene, is regulated by a progesterone response element in its promoter (Piekarz et al, 1993). Direct evidence that the P-gp1b isoform can transport steroids comes from the observation that disruption of the mdr1b gene in mouse adrenal cells is associated with decreased adrenocorticotropic hormone-stimulated steroid secre- tion (Altuvia et al, 1993). […] More specifically, progesterone inhibits vinblastine binding and azidopine photolabelling of both of the mouse P-gp isoforms in vitro (Yang et al, 1990), showing that both isoforms are capable of interacting with steroids. […]

Assay [2] concerns the target P-gp. In words: Sensitivity of [3H]vinblastine binding to DMSO. The arrangement: species or system mouse.
From the text: as §1

Assay [3] has as its system drug-sensitive cells (LR73). Kind of assay: Vinblastine sensitivity of drug-sensitive cells in culture. Particulars: Cricetulus griseus. In kind it is cell-based, Chinese hamster.
From the text: as §1

For assay [4], the system named is Drug-resistant lines (LR73-1a, LR73-1b). Kind of assay: Maximal vinblastine resistance level of drug-resistant lines in culture. It counts as cell-based, Chinese hamster. Particulars: Cricetulus griseus, read-out: EC50, maximal resistance level of the cells.
From the text: as §1

Assay [5] has as its target T1, P-gp1a (Mus musculus, UniProt P21447).
T1 construct: expressed in transfected cells; host or cells: Chinese hamster ovary LR73 cells (LR73-1a), plasma membrane fraction
In words: Displacement of equilibrium [3H]vinblastine binding, LR73-1a membranes.
From the text: as §1

Assay [6] concerns the target T2, P-gp1b (Mus musculus, UniProt P06795).
T2 construct: expressed in transfected cells; host or cells: Chinese hamster ovary LR73 cells (LR73-1b), plasma membrane fraction
In words: Displacement of equilibrium [3H]vinblastine binding, LR73-1b membranes.
From the text: as §1

Assay [7] has as its target T1, P-gp1a. In words: Equilibrium (saturation) binding of [3H]vinblastine to LR73-1a plasma membranes, rapid filtration. To be noted: LR73-1a membranes, mean s.e.m.
From the text: as §1

Assay [8] has as its target T2, P-gp1b. In words: Equilibrium (saturation) binding of [3H]vinblastine to LR73-1b plasma membranes, rapid filtration. An excerpt: (§2) The two murine proteins share 84% amino acid identity, although the linker region which contains several sites for phosphorylation by protein kinase C (PKC) is the least conserved region between the two isoforms (Devault and Gros, 1990). […] P-gp1a is expressed at high levels in the intestine, liver and testis, and also in the lung and brain where it is thought to contribute to the blood-brain barrier (Schinkel et al, 1994). In contrast, P-gp1b is expressed in tissues associated with steroid biosynthesis and distribution, such as the adrenal gland and ovary, and is induced specifically in the uterus during pregnancy (Arceci et al, 1988; Trezise et al, 1992). The steroid hormone progesterone increases during pregnancy, and the mdr1b gene, but not the mdr1a gene, is regulated by a progesterone response element in its promoter (Piekarz et al, 1993). Direct evidence that the P-gp1b isoform can transport steroids comes from the observation that disruption of the mdr1b gene in mouse adrenal cells is associated with decreased adrenocorticotropic hormone-stimulated steroid secre- tion (Altuvia et al, 1993). […] More specifically, progesterone inhibits vinblastine binding and azidopine photolabelling of both of the mouse P-gp isoforms in vitro (Yang et al, 1990), showing that both isoforms are capable of interacting with steroids. However, if the distinct tissue-specific patterns of expression of P-gp1a and P-gp1b reflect differences in function related to steroid transport, it is important to show directly that the two proteins are functionally distinct. […] Summary The gene encoding the multidrug resistance P-glycoprotein (P-gp) is duplicated in rodent species and the functional basis for this remains unresolved. […] In the present study possible biochemical differences between the isoforms were directly investigated at the level of drug interaction. […]

Assay [9] addresses T1, P-gp1a. In words: Association kinetics of [3H]vinblastine binding to LR73-1a membranes.
From the text: as §2

The target in assay [10] is T2, P-gp1b. In words: Association kinetics of [3H]vinblastine binding to LR73-1b membranes.
From the text: as §2

Assay [11] is described as follows: [3H]vinblastine binding to LR73 membranes that do not express P-gp. Further details: species or system Chinese hamster. To be noted: data not shown.
From the text: as §1

T1 sequence (P21447 whole entry): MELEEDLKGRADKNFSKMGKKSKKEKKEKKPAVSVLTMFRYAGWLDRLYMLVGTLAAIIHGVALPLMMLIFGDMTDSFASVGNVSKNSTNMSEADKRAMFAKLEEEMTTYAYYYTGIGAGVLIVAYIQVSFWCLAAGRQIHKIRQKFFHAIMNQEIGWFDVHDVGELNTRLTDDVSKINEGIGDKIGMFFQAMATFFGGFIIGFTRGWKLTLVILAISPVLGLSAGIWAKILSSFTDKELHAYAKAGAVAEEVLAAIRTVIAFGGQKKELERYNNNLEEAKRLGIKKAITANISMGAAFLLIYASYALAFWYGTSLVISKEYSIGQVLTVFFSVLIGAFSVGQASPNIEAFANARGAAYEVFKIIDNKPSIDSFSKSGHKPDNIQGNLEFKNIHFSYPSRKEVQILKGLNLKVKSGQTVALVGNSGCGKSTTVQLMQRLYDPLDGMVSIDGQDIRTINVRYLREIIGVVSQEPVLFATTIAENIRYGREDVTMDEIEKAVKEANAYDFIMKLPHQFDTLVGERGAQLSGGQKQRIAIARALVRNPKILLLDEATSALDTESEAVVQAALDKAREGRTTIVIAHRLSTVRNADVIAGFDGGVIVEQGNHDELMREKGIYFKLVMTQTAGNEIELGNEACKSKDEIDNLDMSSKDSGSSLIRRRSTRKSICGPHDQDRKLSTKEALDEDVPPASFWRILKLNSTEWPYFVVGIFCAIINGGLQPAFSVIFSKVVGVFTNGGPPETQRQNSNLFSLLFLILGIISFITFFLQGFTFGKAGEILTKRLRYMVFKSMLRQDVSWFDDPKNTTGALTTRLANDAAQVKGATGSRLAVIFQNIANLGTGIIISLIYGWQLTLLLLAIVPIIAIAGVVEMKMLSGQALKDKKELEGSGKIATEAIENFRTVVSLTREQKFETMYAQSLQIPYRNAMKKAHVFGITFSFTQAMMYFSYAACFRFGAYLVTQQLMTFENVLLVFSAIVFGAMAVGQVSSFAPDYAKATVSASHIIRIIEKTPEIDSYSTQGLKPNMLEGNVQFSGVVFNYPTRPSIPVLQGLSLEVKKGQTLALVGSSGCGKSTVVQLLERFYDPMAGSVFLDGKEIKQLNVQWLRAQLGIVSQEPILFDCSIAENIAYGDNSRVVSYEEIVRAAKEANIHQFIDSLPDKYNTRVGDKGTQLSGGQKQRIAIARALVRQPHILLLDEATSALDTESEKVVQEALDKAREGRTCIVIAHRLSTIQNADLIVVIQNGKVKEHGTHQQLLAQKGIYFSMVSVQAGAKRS
T2 sequence (P06795 whole entry): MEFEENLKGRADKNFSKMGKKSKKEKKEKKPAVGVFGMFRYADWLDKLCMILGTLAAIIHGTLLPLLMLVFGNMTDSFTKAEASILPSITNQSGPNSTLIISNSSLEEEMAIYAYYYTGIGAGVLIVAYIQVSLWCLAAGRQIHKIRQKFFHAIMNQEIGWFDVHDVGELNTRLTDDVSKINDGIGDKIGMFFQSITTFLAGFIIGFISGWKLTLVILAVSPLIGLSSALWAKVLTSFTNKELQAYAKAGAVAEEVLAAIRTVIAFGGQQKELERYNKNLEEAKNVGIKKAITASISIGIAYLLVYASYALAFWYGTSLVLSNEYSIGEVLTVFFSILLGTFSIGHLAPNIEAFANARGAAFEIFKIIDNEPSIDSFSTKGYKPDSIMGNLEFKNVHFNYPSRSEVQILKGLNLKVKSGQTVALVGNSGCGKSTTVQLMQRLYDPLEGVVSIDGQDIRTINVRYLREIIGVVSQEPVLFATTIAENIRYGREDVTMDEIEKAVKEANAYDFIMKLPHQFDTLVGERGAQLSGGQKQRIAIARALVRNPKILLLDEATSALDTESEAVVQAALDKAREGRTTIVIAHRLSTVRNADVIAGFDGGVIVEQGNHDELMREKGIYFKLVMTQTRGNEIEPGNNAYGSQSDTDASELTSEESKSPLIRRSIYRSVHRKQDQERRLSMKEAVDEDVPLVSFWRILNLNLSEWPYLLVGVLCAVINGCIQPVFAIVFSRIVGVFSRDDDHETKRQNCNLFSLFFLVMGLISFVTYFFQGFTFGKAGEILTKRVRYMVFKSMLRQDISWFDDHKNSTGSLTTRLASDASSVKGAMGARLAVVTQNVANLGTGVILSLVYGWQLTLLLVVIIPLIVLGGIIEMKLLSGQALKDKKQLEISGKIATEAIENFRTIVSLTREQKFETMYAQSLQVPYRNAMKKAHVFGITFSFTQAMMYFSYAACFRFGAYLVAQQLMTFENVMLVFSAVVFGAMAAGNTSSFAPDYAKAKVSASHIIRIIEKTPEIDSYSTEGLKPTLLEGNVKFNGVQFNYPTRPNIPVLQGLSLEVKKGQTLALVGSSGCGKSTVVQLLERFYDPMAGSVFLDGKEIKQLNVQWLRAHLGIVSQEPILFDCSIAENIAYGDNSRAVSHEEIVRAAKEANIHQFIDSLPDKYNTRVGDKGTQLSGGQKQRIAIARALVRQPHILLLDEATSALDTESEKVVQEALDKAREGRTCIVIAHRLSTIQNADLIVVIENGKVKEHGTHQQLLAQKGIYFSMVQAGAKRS

Consider `CC(=O)[C@H]1CC[C@H]2[C@@H]3CCC4=CC(=O)CC[C@]4(C)[C@H]3CC[C@]12C` [[3H]progesterone], for which the “binding characteristics to P-gp” value with P-gp [1] was “poor affinity, low specific binding”.

Regarding `C[S+](C)[O-]` [DMSO, dimethylsulphoxide], the “EC50 on [3H]vinblastine binding” value on P-gp [2] is listed as 2.5 % (v/v).

What is called EC50 is the concentration needed to bring the measured effect to its halfway point. With `CC[C@]1(O)C[C@@H]2CN(CCc3c([nH]c4ccccc34)[C@@](C(=O)OC)(c3cc4c(cc3OC)N(C)[C@H]3[C@@](O)(C(=O)OC)[C@H](OC(C)=O)[C@]5(CC)C=CCN6CC[C@]43[C@@H]65)C2)C1` [vinblastine sulphate, Vinblastine sulphate], the EC50 in assay [3] is 0.01 µg/mL; in [4], 0.2 to 0.25 µg/mL.

Usually Ki stands for a dissociation constant, usually derived from enzyme kinetics or from competition with a known ligand. For `CC(=O)[C@H]1CC[C@H]2[C@@H]3CCC4=CC(=O)CC[C@]4(C)[C@H]3CC[C@]12C` [progesterone], the Ki was determined as 1900 nM at P-gp1a [5] and 1800 nM at P-gp1b [6].

Take `CC[C@]1(O)C[C@@H]2CN(CCc3c([nH]c4ccccc34)[C@@](C(=O)OC)(c3cc4c(cc3OC)N(C)[C@H]3[C@@](O)(C(=O)OC)[C@H](OC(C)=O)[C@]5(CC)C=CCN6CC[C@]43[C@@H]65)C2)C1` [[3H]vinblastine]: the Kd on P-gp1a [7] (equilibrium, read-out: Kd, affinity of [3H]vinblastine binding) is 32.9 nM; on P-gp1b [8] (LR73-1b membranes, equilibrium, mean s.e.m., read-out: Kd, affinity of [3H]vinblastine binding), 30.7 nM; on P-gp1a [9] (P-gp1a, read-out: Estimate of dissociation constant (Kd = k-1/k+1) using the kinetic data), 35 nM; on P-gp1b [10] (P-gp1b, read-out: Estimate of dissociation constant (Kd = k-1/k+1) using the kinetic data) it was 55 nM. The “Bmax, density of specific binding sites” value on P-gp1a [7] is given as 24.5 2.9 pmol mg-1; on P-gp1b [8] (LR73-1b membranes, mean s.e.m.), 14.1 2.9 pmol mg-1. At P-gp1b [8] (Figure 2, single representative experiment), the Bmax is 8.6 1.4 pmol mg-1. For the same molecule, the “association rate constant (k+1)” value at P-gp1a [9] (LR73-1a membranes, 15-20 nM [3H]vinblastine) is 0.002 0.0005 min-1 nM-1; on P-gp1b [10] (LR73-1b membranes, 15-20 nM [3H]vinblastine), 0.002 0.0006 min-1 nM-1. The “rate constant of [3H]vinblastine dissociation (k-1)” value on P-gp1a [9] (LR73-1a membranes, derived from Figure 3) is 0.07 0.02 min-1; on P-gp1b [10] (LR73-1b membranes, derived from Figure 3) it was 0.11 0.02 min-1. Also, the specific binding result in assay [11] was “did not bind specifically”.
